Results: patent publication EP4567035A1, “NOVEL COMPOUND AS HYPOXIA-INDUCIBLE FACTOR 1(HIF-1) INHIBITOR OR VASCULAR ENDOTHELIAL GROWTH FACTOR (VEGF) INHIBITOR, AND PHARMACEUTICAL COMPOSITION COMPRISING SAME” (Nextgen Bioscience Co., Ltd., priority 2022, dated 2024)
Read-outs that look alike come from different tables or passages of the source.

Assays:
VEGF = assay: Evaluation of VEGF protein secretion level (Human VEGF ELISA) in ARPE-19 cell medium under hypoxic conditions; assay type: cell-based
Procedure, shortened: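 Human ARPE-19 cells were pretreated 2 h with compound (0.1 nM–10 µM, in DMEM/F12 with 1% FBS), then held 24 h in hypoxia (1% O2, 5% CO2). Secreted VEGF in the supernatant was quantified by ELISA (A450). The value is the concentration range giving ≥50% VEGF reduction versus untreated control.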

HIF-1α = molecular target: T1, HIF-1α (Homo sapiens, UniProt Q16665); assay: Analysis of HIF-1α protein expression (Western blot) in ARPE-19 cells under mixed hypoxic condition; assay type: cell-based; conditions: concentration range at which HIF-1α expression is reduced by 50% vs untreated control
T1 construct: endogenous in cells; host or cells: ARPE-19 (ATCC CRL-2302)
T1 sequence (Q16665 whole entry): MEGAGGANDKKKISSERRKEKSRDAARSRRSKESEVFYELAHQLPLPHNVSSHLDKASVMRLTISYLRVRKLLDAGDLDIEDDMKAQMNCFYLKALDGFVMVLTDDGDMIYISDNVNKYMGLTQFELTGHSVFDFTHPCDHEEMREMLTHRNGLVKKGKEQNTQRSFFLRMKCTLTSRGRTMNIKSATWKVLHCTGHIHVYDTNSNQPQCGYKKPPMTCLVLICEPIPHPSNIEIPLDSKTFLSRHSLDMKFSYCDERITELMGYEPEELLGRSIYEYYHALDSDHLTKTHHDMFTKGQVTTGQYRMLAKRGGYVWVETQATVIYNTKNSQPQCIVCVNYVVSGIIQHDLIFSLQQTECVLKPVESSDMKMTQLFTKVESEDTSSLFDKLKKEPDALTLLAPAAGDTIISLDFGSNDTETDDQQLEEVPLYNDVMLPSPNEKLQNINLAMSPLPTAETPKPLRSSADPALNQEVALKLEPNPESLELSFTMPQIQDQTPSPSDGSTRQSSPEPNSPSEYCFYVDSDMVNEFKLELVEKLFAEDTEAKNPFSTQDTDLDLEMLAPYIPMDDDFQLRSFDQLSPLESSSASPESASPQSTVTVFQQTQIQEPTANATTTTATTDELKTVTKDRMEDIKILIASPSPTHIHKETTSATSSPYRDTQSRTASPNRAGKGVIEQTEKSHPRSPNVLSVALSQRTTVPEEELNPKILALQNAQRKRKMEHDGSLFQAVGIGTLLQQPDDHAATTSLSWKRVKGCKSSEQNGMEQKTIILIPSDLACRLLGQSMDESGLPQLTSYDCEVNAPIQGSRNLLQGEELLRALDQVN
Procedure, shortened: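 ARPE-19 cells were pretreated 16 h or 2 h with compound (0.1 nM–10 µM, serum-free DMEM/F12), then held 1 h or 24 h in mixed hypoxia (1% O2 plus CoCl2). HIF-1α was quantified by Western blot against β-actin; the concentration range giving ≥50% reduction vs untreated control was reported.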

[1] = ARPE-19 cells, pretreated 2 hours, 24 hours hypoxic conditions, secreted VEGF in medium supernatant by ELISA, concentration range reducing VEGF by 50% vs untreated control, read-out: IC50 VEGF
[2] = values marked * in the table, mixed hypoxic condition (1% oxygen + CoCl2) for 24 hours, read-out: IC50 HIF-1α, Hypoxia(24h)
[3] = mixed hypoxic condition (1% oxygen + CoCl2) for 1 hour, read-out: IC50 HIF-1α Hypoxia (1 hour)
[4] = ARPE-19 cells, pretreated 2 hours, 24 hours hypoxic conditions, ELISA, read-out: concentration at which the secreted VEGF protein level was suppressed to less than 50%
[5] = Experimental Example 2 (HIF-1α Western blot), read-out: concentration at which the expression level of VEGF was suppressed to less than 50%

SMILES | IC50 (VEGF; [1]) | DC50 (HIF-1α; [2]) | DC50 (HIF-1α; [3]) | IC50 (VEGF; [4]) | IC50 (VEGF; [5])
O=C(NCc1cccc(-c2cnn(-c3ccc(F)cc3)c2)c1)c1ncnc2nc(C3CCCC3)[nH]c12 [Example 57, 8-Cyclopentyl-N-(3-(1-(4-fluorophenyl)-1H-pyrazol-4-yl)benzyl)-7H-purine-6-carboxamide] | 0.1 to 1 µM | < 0.1 µM | – | – | –
O=C(NCc1cc(F)cc(-c2cnn(-c3ccc(F)cc3)c2)c1)c1ncnc2nc(C34CC(F)(C3)C4)[nH]c12 [Example 101, N-(3-fluoro-5-(1-(4-fluorophenyl)-1H-pyrazol-4-yl)benzyl)-8-(3-fluorobicyclo[1.1.1]pentan-1-yl)-7H-purine-6-carboxamide] | 1 to 10 µM | 0.1 to 1 µM | – | – | –
O=C(NCc1cc(F)cc(-c2ccco2)c1)c1ncnc2nc(C3CCCC3)[nH]c12 [Example 39, 8-Cyclopentyl-N-(3-fluoro-5-(furan-2-yl)benzyl)-7H-purine-6-carboxamide] | 0.1 to 1 µM | – | 0.1 to 1 µM | – | –
O=C(NCc1cc(F)cc(Nc2ccsc2)c1)c1ncnc2nc(C3CCCC3)[nH]c12 [Example 130, 8-Cyclopentyl-N-(3-fluoro-5-(thiophen-3-ylamino)benzyl)-7H-purine-6-carboxamide] | 0.1 to 1 µM | < 0.1 µM | – | – | –
O=C(NCc1cc(F)cc(NC2CCCC2)c1)c1ncnc2nc(C3CCCC3)[nH]c12 [Example 135, 8-Cyclopentyl-N-(3-(cyclopentylamino)-5-fluorobenzyl)-7H-purine-6-carboxamide] | > 10 µM | 0.1 to 1 µM | – | – | –
O=C(NCc1cc(F)cc(-n2cc(-c3ccc(F)cc3)nn2)c1)c1ncnc2nc(C3CCCC3)[nH]c12 [Example 116, 8-Cyclopentyl-N-(3-fluoro-5-(4-(4-fluorophenyl)-1H-1,2,3-triazol-1-yl)benzyl)-7H-purine-6-carboxamide] | > 10 µM | 0.1 to 1 µM | – | – | –
Cn1cc(-c2cc(F)cc(CNC(=O)c3ncnc4nc(C5CC6C(C5)C6(F)F)[nH]c34)c2)cn1 (stereo not shown) [Example 77, 8-(6,6-Difluorobicyclo[3.1.0]hexan-3-yl)-N-(3-fluoro-5-(1-methyl-1H-pyrazol-4-yl)benzyl)-7H-purine-6-carboxamide] | 1 to 10 µM | – | 0.1 to 1 µM | – | –
COC(=O)C1CC(c2nc3ncnc(C(=O)NCc4cc(F)cc(-c5cnn(-c6ccc(F)cc6)c5)c4)c3[nH]2)C1 (single isomer, unassigned) [103(A), Methyl 3-(6-((3-fluoro-5-(1-(4-fluorophenyl)-1H-pyrazol-4-yl)benzyl)carbamoyl)-7H-purin-8-yl)cyclobutanecarboxylate] | > 10 µM | > 10 µM | – | – | –
O=C(NCc1cc(F)cc(Nc2nncs2)c1)c1ncnc2nc(C3CCCC3)[nH]c12 [Example 136, N-(3-((1,3,4-thiadiazol-2-yl)amino)-5-fluorobenzyl)-8-cyclopentyl-7H-purine-6-carboxamide] | > 10 µM | 0.1 to 1 µM | – | – | –
CS(=O)(=O)c1cccc(-n2cc(-c3cc(F)cc(CNC(=O)c4ncnc5nc(C6CCCC6)[nH]c45)c3)cn2)c1 [Example 45, 8-Cyclopentyl-N-(3-fluoro-5-(1-(3-(methylsulfonyl)phenyl)-1H-pyrazol-4-yl)benzyl)-7H-purine-6-carboxamide] | < 0.1 µM | < 0.1 µM | – | < 0.1 µM | < 0.1 µM
O=C(NCc1cc(F)cc(-c2cnn(-c3ccc(C(F)(F)F)cc3)c2)c1)c1ncnc2nc(C3CCCC3)[nH]c12 [Example 26, 8-Cyclopentyl-N-(3-fluoro-5-(1-(4-(trifluoromethyl)phenyl)-1H-pyrazol-4-yl)benzyl)-7H-purine-6-carboxamide] | 0.1 to 1 µM | – | < 0.1 µM | – | –
O=C(NCc1cc(F)cc(-c2cnn(-c3ccc(F)cc3)c2)c1)c1ncnc2nc(C3CCCC3)[nH]c12 [Example 27, 8-Cyclopentyl-N-(3-fluoro-5-(1-(4-fluorophenyl)-1H-pyrazol-4-yl)benzyl)-7H-purine-6-carboxamide] | 0.1 to 1 µM | – | < 0.1 µM | – | –
[2H]c1c([2H])c([2H])c(-n2cc(-c3cc(F)cc(CNC(=O)c4ncnc5nc(C6CCCC6)[nH]c45)c3)cn2)c([2H])c1[2H] [Example 145, 8-Cyclopentyl-N-(3-fluoro-5-(1-phenyl-d5-1H-pyrazol-4-yl)benzyl)-7H-purine-6-carboxamide] | 0.1 to 1 µM | < 0.1 µM | – | – | –
O=C(NCc1cc(F)cc(-c2cnn(-c3ccc(F)c(Cl)c3)c2)c1)c1ncnc2nc(C3CCCC3)[nH]c12 [Example 87, N-(3-(1-(3-chloro-4-fluorophenyl)-1H-pyrazol-4-yl)-5-fluorobenzyl)-8-cyclopentyl-7H-purine-6-carboxamide] | 0.1 to 1 µM | < 0.1 µM | – | – | –
CCOC(=O)c1ccc(Nc2cc(F)cc(CNC(=O)c3ncnc4nc(C5CCCC5)[nH]c34)c2)cc1 [Example 127, Ethyl 4-((3-((8-cyclopentyl-7H-purine-6-carboxamido)methyl)-5-fluorophenyl)amino)benzoate] | > 10 µM | 0.1 to 1 µM | – | – | –
O=C(NCc1cc(F)cc(-c2cnn(-c3ccc(F)cc3)c2)c1)c1ncnc2nc(C3CCC(F)C3)[nH]c12 (single isomer, unassigned) [110(B), N-(3-Fluoro-5-(1-(4-fluorophenyl)-1H-pyrazol-4-yl)benzyl)-8-(3-fluorocyclopentyl)-7H-purine-6-carboxamide] | 0.1 to 1 µM | < 0.1 µM | – | – | –
O=C(NCc1cc(F)cc(-c2cnn(-c3ccc(F)cc3)c2)c1)c1ncnc2nc(C3CCC(F)(F)C3)[nH]c12 (stereo not shown) [Example 80, 8-(3,3-Difluorocyclopentyl)-N-(3-fluoro-5-(1-(4-fluorophenyl)-1H-pyrazol-4-yl)benzyl)-7H-purine-6-carboxamide] | < 0.1 µM | < 0.1 µM | – | – | –
O=C(NCc1cc(F)cc(-c2cnn(-c3cccnc3)c2)c1)c1ncnc2nc(C3CCCC3)[nH]c12 [Example 31, 8-Cyclopentyl-N-(3-fluoro-5-(1-(pyridin-3-yl)-1H-pyrazol-4-yl)benzyl)-7H-purine-6-carboxamide] | < 0.1 µM | – | < 0.1 µM | < 0.1 µM | < 0.1 µM

Other lines, results leading:

IC50 (VEGF; [1]) | DC50 (HIF-1α; [2]) | DC50 (HIF-1α; [3]) | IC50 (VEGF; [4]) | IC50 (VEGF; [5]) | SMILES
0.1 to 1 µM | < 0.1 µM | – | – | – | [2H]C1([2H])C(c2nc3ncnc(C(=O)NCc4cc(F)cc(-c5cnn(-c6ccc(F)cc6)c5)c4)c3[nH]2)C([2H])([2H])C([2H])([2H])C1([2H])[2H] [Example 153, 8-(Cyclopentyl-2,2,3,3,4,4,5,5-d8)-N-(3-fluoro-5-(1-(4-fluorophenyl)-1H-pyrazol-4-yl)benzyl)-7H-purine-6-carboxamide]
0.1 to 1 µM | < 0.1 µM | – | – | – | O=C(NCc1cc(F)cc(-c2cnn(-c3cnn(Cc4ccccc4)c3)c2)c1)c1ncnc2nc(C3CCCC3)[nH]c12 [Example 125, N-(3-(1'-benzyl-1'H-[1,4'-bipyrazol]-4-yl)-5-fluorobenzyl)-8-cyclopentyl-7H-purine-6-carboxamide]
0.1 to 1 µM | 0.1 to 1 µM | – | – | – | O=C(NCc1cc(F)cc(-c2cnn(-c3ccc(F)cc3)c2)c1)c1ncnc2nc(C3CC4CCC3C4)[nH]c12 (stereo not shown) [Example 114, 8-(Bicyclo[2.2.1]heptan-2-yl)-N-(3-fluoro-5-(1-(4-fluorophenyl)-1H-pyrazol-4-yl)benzyl)-7H-purine-6-carboxamide]
0.1 to 1 µM | – | < 0.1 µM | – | – | CS(=O)(=O)c1ccc(Nc2cc(F)cc(CNC(=O)c3ncnc4nc(C5CCCC5)[nH]c34)c2)cc1 [Example 19, 8-Cyclopentyl-N-(3-fluoro-5-((4-(methylsulfonyl)phenyl)amino)benzyl)-7H-purine-6-carboxamide]
0.1 to 1 µM | – | < 0.1 µM | – | – | O=C(NCc1cc(F)cc(Nc2cccc(C(F)(F)F)c2)c1)c1ncnc2nc(C3CCCC3)[nH]c12 [Example 17, 8-Cyclopentyl-N-(3-fluoro-5-((3-(trifluoromethyl)phenyl)amino)benzyl)-7H-purine-6-carboxamide]
> 10 µM | 1 to 10 µM | – | – | – | O=C(NCc1cc(F)cc(-c2cnn(-c3cc[s+]([O-])c3)c2)c1)c1ncnc2nc(C3CCCC3)[nH]c12 (stereo not shown) [Example 143, 8-Cyclopentyl-N-(3-fluoro-5-(1-(1-oxidothiophen-3-yl)-1H-pyrazol-4-yl)benzyl)-7H-purine-6-carboxamide]
0.1 to 1 µM | < 0.1 µM | – | – | – | [2H]c1c([2H])c([2H])c(-n2cc(-c3cc(F)cc(CNC(=O)c4ncnc5nc(C6CCC(F)(F)C6)[nH]c45)c3)cn2)c([2H])c1[2H] (stereo not shown) [Example 148, 8-(3,3-Difluorocyclopentyl)-N-(3-fluoro-5-(1-(phenyl-d5)-1H-pyrazol-4-yl)benzyl)-7H-purine-6-carboxamide]
0.1 to 1 µM | – | < 0.1 µM | – | – | O=C(NCc1cc(F)cc(-c2ccn(-c3ccc(F)cc3)n2)c1)c1ncnc2nc(C3CCCC3)[nH]c12 [Example 51, 8-Cyclopentyl-N-(3-fluoro-5-(1-(4-fluorophenyl)-1H-pyrazol-3-yl)benzyl)-7H-purine-6-carboxamide]
> 10 µM | 1 to 10 µM | – | – | – | O=C(NCc1cc(F)cc(-c2cnn(-c3ccc(F)cc3)c2)c1)c1ncnc2nc(C34CC(C3)C4)[nH]c12 [Example 99, 8-(Bicyclo[1.1.1]pentan-1-yl)-N-(3-fluoro-5-(1-(4-fluorophenyl)-1H-pyrazol-4-yl)benzyl)-7H-purine-6-carboxamide]
